The structures appear in SMILES notation. Values joined by “and” are separate entries in the source; they are usually repeats but may differ in a detail not shown here. Equal values may be shown once.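 Five concentrations, 48 hours, 96-well plates. GI50 marks 50% less growth. TGI is the concentration that stops growth completely.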 Bounds are passed on as bounds.

Some test systems named below: HCC-2998 colon; MDA-MB-435; MOLT-4 leukemia; NCI-H23 lung; OVCAR-4 ovarian; PC-3 prostate; SF-539 CNS; SK-MEL-28 melanoma; T-47D breast; U251 CNS.
Assay in all cases: NCI tumour cell line growth inhibition, 48 h

In the case of `COc1ccc2c(c1)OCC1c3cc(OC)c4ccccc4c3OC21` (stereo not given), the GI50 with HCC-2998 colon was 1.98 µM; in the test on MDA-MB-435, 2.56 µM; in the test on MOLT-4 leukemia it was 9.82 µM; in the test with NCI-H23 lung, 4.88 µM; with OVCAR-4 ovarian, 16.5 µM; in the test with PC-3 prostate, 8.82 µM. For the same molecule, the GI50 in the test with SF-539 CNS was 21.3 µM; in the test with SK-MEL-28 melanoma, 9.13 µM; in the test on T-47D breast, 13.7 µM; in the test on U251 CNS it was 9.95 µM. Also, the TGI in the test with HCC-2998 colon was 7.26 µM; in the test on MDA-MB-435 it was 7.46 µM; in the test with MOLT-4 leukemia, over 100 µM; in the test on NCI-H23 lung, 43.2 µM; with OVCAR-4 ovarian, over 100 µM; in the test on PC-3 prostate, over 100 µM. Also, the TGI is over 100 µM in the test on SF-539 CNS, over 100 µM in the test on SK-MEL-28 melanoma, 47 µM with T-47D breast and 67 µM in the test with U251 CNS.
`Cc1c(O)cccc1C(=O)N[C@@H](CSc1ccccc1)[C@H](O)CN1C[C@H]2CCCC[C@H]2C[C@H]1C(=O)NC(C)(C)C`: the GI50 in the test with HCC-2998 colon is 3.6 µM and 4.97 µM; in the test with MDA-MB-435 it was 3.46 µM and 4.9 µM; in the test with MOLT-4 leukemia, 2.22 µM and 2.96 µM; in the test with NCI-H23 lung, 6.68 µM and 7 µM; in the test with OVCAR-4 ovarian, 5.97 µM and 5.96 µM; with PC-3 prostate it was 2.95 µM and 3.94 µM. In addition, the GI50 with SF-539 CNS was 6.35 µM and 5.55 µM; in the test on SK-MEL-28 melanoma it was 5.68 µM and 7.33 µM; in the test with T-47D breast, 3.79 µM and 6.02 µM; in the test on U251 CNS, 3.79 µM and 4.25 µM. Besides, the TGI in the test on HCC-2998 colon was 10.5 µM and 13.6 µM; in the test with MDA-MB-435, 12.8 µM and 38.4 µM; in the test with MOLT-4 leukemia it was 5.46 µM and 10.4 µM; with NCI-H23 lung, 30.6 µM and 26.3 µM; with OVCAR-4 ovarian it was > 37.6 µM and 23.4 µM; in the test on PC-3 prostate, 11.1 µM and > 35.1 µM. Besides, the TGI in the test on SF-539 CNS was 22.2 µM and 16.2 µM; in the test with SK-MEL-28 melanoma it was 19.3 µM and 22.2 µM; in the test on T-47D breast, 19.4 µM and > 55.6 µM; in the test on U251 CNS, 14.5 µM and 14.7 µM.
Regarding `Cc1[nH]c(C(=O)Nc2cccc(OC3CCNCC3)c2)c(Cl)c1Cl`, the GI50 in the test on HCC-2998 colon is 1.76 µM; in the test with MDA-MB-435 it was 1.81 µM; with MOLT-4 leukemia, 1.94 µM; in the test with NCI-H23 lung it was 2.14 µM; with OVCAR-4 ovarian it was 2.6 µM; in the test with PC-3 prostate, 1.69 µM. In addition, the GI50 in the test with SF-539 CNS is 1.64 µM; in the test with SK-MEL-28 melanoma it was 1.64 µM; in the test with T-47D breast, 1.96 µM; in the test with U251 CNS it was 1.93 µM. Moreover, the TGI with HCC-2998 colon stood at 3.31 µM; with MDA-MB-435, 3.3 µM; in the test on MOLT-4 leukemia, 4.12 µM; in the test with NCI-H23 lung it was 5.54 µM; in the test on OVCAR-4 ovarian it was 6.76 µM; in the test on PC-3 prostate, 3.36 µM. Besides, the TGI with SF-539 CNS stood at 3.06 µM; in the test on SK-MEL-28 melanoma, 3.07 µM; in the test on T-47D breast, 4.52 µM; with U251 CNS, 4.19 µM.
As to `CC1(C)CC[C@]23CC[C@]4(C)[C@H](CC[C@@H]5[C@@]6(C)CCCNC(C)(C)[C@@H]6CC[C@]54C)[C@H]2[C@H]1OC3`, the GI50 in the test with HCC-2998 colon was 1.54 µM; in the test on MDA-MB-435, 1.65 µM; in the test on MOLT-4 leukemia, 2.1 µM; with NCI-H23 lung it was 1.76 µM; with OVCAR-4 ovarian, 1.65 µM; with PC-3 prostate, 1.61 µM. The GI50 in the test on SF-539 CNS is 1.64 µM; in the test on SK-MEL-28 melanoma it was 1.66 µM; in the test with T-47D breast, 1.71 µM; in the test with U251 CNS, 1.74 µM. Besides, the TGI was 2.97 µM in the test with HCC-2998 colon; 3.02 µM in the test on MDA-MB-435; 5.04 µM in the test on MOLT-4 leukemia; 3.5 µM in the test on NCI-H23 lung; 3.12 µM in the test with OVCAR-4 ovarian; 3.17 µM with PC-3 prostate. Besides, the TGI in the test on SF-539 CNS is 3.07 µM; in the test with SK-MEL-28 melanoma it was 3.18 µM; with T-47D breast, 3.69 µM; with U251 CNS it was 3.23 µM.
For `COc1ccccc1CNCCCN1C(=O)c2ccc3c4c(ccc(c24)C1=O)C(=O)N(CCCNCCCCNCCCN)C3=O`, the GI50 in the test with HCC-2998 colon is 0.295 µM; with MDA-MB-435, 0.213 µM; in the test on MOLT-4 leukemia, 0.57 µM; in the test with NCI-H23 lung it was 0.356 µM; in the test with OVCAR-4 ovarian it was 0.167 µM; in the test on PC-3 prostate, 0.561 µM. For the same molecule, the GI50 was 0.426 µM in the test on SF-539 CNS, 0.388 µM with SK-MEL-28 melanoma, 0.214 µM with T-47D breast and 0.339 µM in the test on U251 CNS. For the same molecule, the TGI in the test on HCC-2998 colon was 1.06 µM; in the test with MDA-MB-435, 0.494 µM; in the test on MOLT-4 leukemia, 8.31 µM; with NCI-H23 lung, 2.05 µM; with OVCAR-4 ovarian it was 0.319 µM; with PC-3 prostate, 5.23 µM. Also, the TGI came to 1.67 µM with SF-539 CNS, 1.44 µM with SK-MEL-28 melanoma, 0.49 µM with T-47D breast and 1.3 µM with U251 CNS.
Take `CCCCCc1cc(/C=C2/N=C(c3ccc[nH]3)C=C2OC)[nH]c1C`: the TGI in the test with HCC-2998 colon was determined as 1.02 µM; in the test on MDA-MB-435, 0.187 µM; with MOLT-4 leukemia, 0.134 µM; in the test with NCI-H23 lung, 0.346 µM; in the test on OVCAR-4 ovarian it was 0.351 µM; with PC-3 prostate, 1.06 µM. For the same molecule, the TGI in the test with SF-539 CNS came out at 0.177 µM; with SK-MEL-28 melanoma it was 0.805 µM; in the test with T-47D breast, 0.421 µM; in the test on U251 CNS, 0.153 µM.
On to `COc1cc(/C=C2\CCC/C(=C\c3cc(CN4CCCC4)c(O)c(OC)c3)C2=O)cc(CN2CCCC2)c1O`, for which the GI50 in the test on HCC-2998 colon was 2.55 µM; in the test with MDA-MB-435 it was 2.75 µM; in the test with MOLT-4 leukemia it was 2.43 µM; in the test on NCI-H23 lung, 4.81 µM; with OVCAR-4 ovarian it was 5.93 µM; in the test with PC-3 prostate, 3.88 µM. Besides, the GI50 was 1.72 µM in the test with SF-539 CNS, 10.1 µM in the test with SK-MEL-28 melanoma, 7.97 µM with T-47D breast and 3.03 µM in the test on U251 CNS. The TGI in the test on HCC-2998 colon is 6.38 µM; with MDA-MB-435, 7.46 µM; with MOLT-4 leukemia it was 8.98 µM; in the test with NCI-H23 lung, 19.8 µM; in the test on OVCAR-4 ovarian, over 100 µM; in the test on PC-3 prostate it was 16.6 µM. The TGI in the test with SF-539 CNS amounted to 3.63 µM; in the test on SK-MEL-28 melanoma, 22.7 µM; in the test with T-47D breast, 22.3 µM; in the test with U251 CNS, 11.2 µM.
For the molecule `CC[C@]12C=CCN3CC[C@@]4(c5ccc(OC)cc5N(C)[C@H]4[C@@](O)(C(=O)OC)[C@@H]1OC(=O)CCC(=O)O[C@H]1CC[C@H]4[C@@H]5CCC6=CC(=O)CC[C@@H]6[C@H]5CC[C@]14C)[C@@H]32`, the GI50 in the test on HCC-2998 colon was 1.98 µM; in the test on MDA-MB-435 it was 1.93 µM; in the test with MOLT-4 leukemia it was 1.55 µM; in the test with NCI-H23 lung it was 1.98 µM; in the test with OVCAR-4 ovarian it was 1.79 µM; in the test with PC-3 prostate, 0.996 µM. Moreover, the GI50 in the test on SF-539 CNS was 1.75 µM; with SK-MEL-28 melanoma, 2.17 µM; in the test with T-47D breast, 1.79 µM; with U251 CNS, 1.91 µM. The TGI in the test with HCC-2998 colon, with MDA-MB-435, in the test on MOLT-4 leukemia, in the test on NCI-H23 lung, with OVCAR-4 ovarian and with PC-3 prostate was over 50 µM in each case. Also, the TGI in the test on SF-539 CNS was 7.21 µM; in the test on SK-MEL-28 melanoma it was over 50 µM; in the test with T-47D breast, over 50 µM; in the test with U251 CNS, over 50 µM.
`C=C(C(=O)c1ccccc1)C(NC(C)(C)C)c1ccccc1` (stereo not given): the GI50 was 1.81 µM in the test on HCC-2998 colon; 2.11 µM in the test with MDA-MB-435; 1.76 µM in the test on MOLT-4 leukemia; 1.77 µM with NCI-H23 lung; 4.72 µM with OVCAR-4 ovarian; 3.26 µM in the test with PC-3 prostate. The GI50 with SF-539 CNS was 3.21 µM; in the test on SK-MEL-28 melanoma, 1.84 µM; in the test with T-47D breast it was 2.44 µM; in the test with U251 CNS it was 2.2 µM. Besides, the TGI with HCC-2998 colon came out at 3.38 µM; in the test with MDA-MB-435, 11 µM; in the test on MOLT-4 leukemia it was 21.9 µM; with NCI-H23 lung it was 4.93 µM; in the test on OVCAR-4 ovarian it was 17.1 µM; with PC-3 prostate, 13 µM. The TGI with SF-539 CNS was found to be 8.36 µM; in the test on SK-MEL-28 melanoma, 3.72 µM; with T-47D breast it was 6.78 µM; in the test on U251 CNS it was 6.21 µM.
For the molecule `COc1ccc(OC)c(C2=C(c3cn(C)c4ccccc34)C(=O)NC2=O)c1`, the GI50 in the test with HCC-2998 colon is over 25 µM; with MDA-MB-435, 8.6 µM; in the test on MOLT-4 leukemia it was 24.6 µM; with NCI-H23 lung, over 25 µM; with OVCAR-4 ovarian, over 25 µM; with PC-3 prostate, over 25 µM. Moreover, the GI50 in the test on SF-539 CNS, in the test on SK-MEL-28 melanoma, in the test with T-47D breast and in the test with U251 CNS was over 25 µM in each case. Further, the TGI in the test with HCC-2998 colon, in the test on MDA-MB-435, in the test with MOLT-4 leukemia, with NCI-H23 lung, with OVCAR-4 ovarian and with PC-3 prostate was over 25 µM in each case. Moreover, the TGI in the test on SF-539 CNS, with SK-MEL-28 melanoma, in the test on T-47D breast and in the test with U251 CNS was over 25 µM each time.
On to `Cc1ccc(C2=NN(c3ccc(S(=O)(=O)NC(=O)NCc4ccccc4)cc3)C(c3ccc(N(C)C)cc3)C2)c(C)c1` (stereo not given), for which the GI50 in the test on HCC-2998 colon is 2.45 µM; with MDA-MB-435, 2.51 µM; with MOLT-4 leukemia, 3.65 µM; in the test on NCI-H23 lung, 3.6 µM; in the test on OVCAR-4 ovarian, 3.54 µM; in the test on PC-3 prostate, 3.33 µM. Moreover, the GI50 with SF-539 CNS is 2.43 µM; in the test with SK-MEL-28 melanoma, 2.36 µM; with T-47D breast it was 6.74 µM; in the test on U251 CNS, 3.53 µM. Moreover, the TGI in the test with HCC-2998 colon was 5.65 µM; in the test with MDA-MB-435, 7.08 µM; in the test on MOLT-4 leukemia, 73.8 µM; with NCI-H23 lung, 17.8 µM; with OVCAR-4 ovarian, over 100 µM; in the test on PC-3 prostate, 42 µM. For the same molecule, the TGI in the test on SF-539 CNS is 6.02 µM; in the test on SK-MEL-28 melanoma, 6.89 µM; in the test on T-47D breast it was over 100 µM; in the test on U251 CNS, 16 µM.

Source of the values: PubChem BioAssay (NCI).
